We go through 4 molecules from publication PMC11858513, “Antibiofilm Activities of Tritrpticin Analogs Against Pathogenic Pseudomonas aeruginosa PA01 Strains” (Molecules, 2025).

≈ marks a conversion by molar mass, not a printed value. Like-named read-outs stand apart in the source and are kept apart here. Non-standard residues stand in square brackets, D forms with d. Residues, ends and D or L forms follow the SMILES beside them. Dap = NC[C@H](N)C(=O)O

For data set [1] the following is noted: cited from earlier work. The source says:
(§1) Overall, our work highlights the potential of […] analogs in comparison to related Trp-rich AMPs as potent antibiofilm peptides that can interfere in biofilms produced by P. aeruginosa and potentially other Gram-negative pathogenic bacteria. New antibiofilm agents are welcome for this organism, as P. aeruginosa is well-known to have numerous mechanisms to elude the action of antibiotics during biofilm formation. Various factors can influence the suitability of AMPs to act as bactericidal and antibiofilm peptides simultaneously (for a general discussion see, for example, [74]). One ...

Data set [2] concerns P. aeruginosa PAO1 GFP. Put plainly: MIC against planktonic cells, absorbance at 600 nm. In kind it is cell-based, Pseudomonas aeruginosa. As to conditions: absorbance 600 nm. Put shortly: (§2)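 GFP-expressing P. aeruginosa PAO1 exposed to peptides; planktonic MIC read by absorbance at 600 nm, while MBIC (prevention) and MBEC (eradication) used biofilm GFP fluorescence at 480/530 nm. Triplicate biological replicates averaged, with untreated growth and medium-only controls on each plate.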

Data set [3] concerns P. aeruginosa PAO1 GFP. Put plainly: MBIC, prevention of biofilm formation, GFP fluorescence method. In kind it is cell-based, Pseudomonas aeruginosa. Put shortly: as §2
Data set [4] relates to P. aeruginosa PAO1 GFP. Description: MBEC, biofilm eradication, GFP fluorescence method. In kind it is cell-based, Pseudomonas aeruginosa. Put shortly: as §2
Data set [5] concerns P. aeruginosa PAO1. In kind it is cell-based, Pseudomonas aeruginosa. As to conditions: absorbance 600 nm. Put shortly: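 PAO1 tested with peptides in 1× BM2; planktonic growth read at 600 nm, biofilm quantified by 0.1% crystal violet staining (15 min), ethanol release and 595 nm reading, using a Calgary biofilm device. Values are means of three replicates with untreated-growth and medium-only controls.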

Data set [6] relates to P. aeruginosa PAO1. In kind it is cell-based. As to conditions: for MBIC (CV at 595 nm) LD50 / MBRC (CV at 595 nm) LD50: PAO1; for MBRC (CV at 595 nm) LD90: minimum biofilm reduction concentration. An outline of the steps:
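Peptides tested against P. aeruginosa PAO1 in 1× BM2 medium; planktonic growth read at 600 nm for MIC. Biofilm inhibition and eradication quantified by 0.1% crystal violet staining (15 min), ethanol release, absorbance at 595 nm, plus GFP-fluorescence and Calgary peg-device methods; triplicate means.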

Data set [7] has as its system peripheral blood mononuclear cells (PBMCs). As to conditions: cited from earlier work.
From the text: as §1

The subject of another data set is red blood cells. As to conditions: cited from earlier work.
From the text: as §1

Data set [8] relates to S. aureus GFP. Put plainly: MIC against planktonic cells, absorbance at 600 nm. In kind it is cell-based, Staphylococcus aureus. As to conditions: Table 4; Sa GFP, 10% TSB and 0.1% glucose; absorbance 600 nm; mean of three biological replicates. An outline of the steps: (§3)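 GFP-expressing S. aureus, triplicate biological replicates. MIC on planktonic cells by absorbance at 600 nm. MBIC and MBEC from biofilm GFP fluorescence (480/530 nm), with untreated growth and media-only controls.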

Data set [9] concerns S. aureus GFP. Put plainly: MBIC, GFP fluorescence method. In kind it is cell-based, Staphylococcus aureus. As to conditions: Table 4, Sa GFP, 10% TSB and 0.1% glucose, mean of three biological replicates. Put shortly: as §3
In data set [10] the test system is S. aureus GFP. Put plainly: MBEC, GFP fluorescence method. In kind it is cell-based, Staphylococcus aureus. As to conditions: Table 4, Sa GFP, 10% TSB and 0.1% glucose, mean of three biological replicates. Put shortly:
as §3

Data set [11] concerns S. aureus GFP. In kind it is cell-based, Staphylococcus aureus. As to conditions: Table 4; Sa GFP; lowest concentration of peptide with no bacterial growth seen on the spot agar plate.
Data set [12] has as its system P. aeruginosa PAO1. In kind it is cell-based, Pseudomonas aeruginosa. As to conditions: Table 5; PAO1, 1x BM2; biofilms on pegs, cells plated and counted; three biological replicates. Put shortly:
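Biofilm eradication (MBEC) for peptides against P. aeruginosa PAO1 in 1× BM2 medium, from counts of biofilm cells; GFP-producing strain fluorescence, crystal violet staining and Calgary peg device also used. Three biological replicates, mean ± SD, with untreated growth and medium-only controls.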

Where [13] appears, read: Table 3, Tritrp-Lys derivatives, BM2 medium, three replicates.
Setting [14] is: Table 6, Tritrp-Lys derivatives, PAO1, BM2, three replicates, unit not given.
[15] abbreviates: Table 6, Tritrp-Lys derivatives, PAO1, BM2, 0.1% crystal violet 15 min, released with 95% ethanol, 595 nm, three replicates, unit not given.
Where [16] appears, read: Table 2, BM2 medium, mean of three biological replicates.
The mark [17] stands for this setting: Table 5, regular PAO1 (no GFP), 1x BM2, mean of three biological replicates.
Where [18] appears, read: Table 5, PAO1, 1x BM2, crystal violet at 595 nm, mean of three biological replicates.

Consider `NCC(N)C(=O)O` (centres unmarked) [Dap, 2,3-diaminopropionic acid], for which, in data set [1], the “sidechain pKa value” is 6.3.
On to `CC(C)C[C@H](NC(=O)[C@H](Cc1ccccc1)NC(=O)[C@@H]1CCCN1C(=O)[C@H](Cc1c[nH]c2ccccc12)NC(=O)[C@H](Cc1c[nH]c2ccccc12)NC(=O)[C@H](Cc1c[nH]c2ccccc12)NC(=O)[C@@H]1CCCN1C(=O)[C@H](Cc1ccccc1)NC(=O)[C@H](CN)NC(=O)[C@H](CN)NC(=O)[C@@H](N)C(C)C)C(=O)N[C@@H](CN)C(=O)N[C@@H](CN)C(N)=O` [Tritrp-Dap] (H-V[Dap][Dap]FPWWWPFL[Dap][Dap]-NH2; N-terminus assumed), for which, in the data set on P. aeruginosa PAO1 GFP [2] (setting [13]), the “MIC at 600 nm LD50” value was determined as 8 µM (≈ 13 µg/mL) and the “MIC at 600 nm LD90” value is 8 µM (≈ 13 µg/mL). In the data set on P. aeruginosa PAO1 GFP [3] (setting [13]), the “MBIC at 488 and 530 nm LD50” value is 8 µmol/L; the “MBIC at 488 and 530 nm LD90” value turned out to be 16 µmol/L. In addition, in the data set on P. aeruginosa PAO1 GFP [4] (setting [13]), the “MBEC at 488 and 530 nm LD50” value turned out to be 8 µmol/L; the “MBEC at 488 and 530 nm LD90” value was found to be 64 µmol/L. In addition, in the data set with P. aeruginosa PAO1 [5] (setting [14]), the “MIC at 600 nm LD50” value amounted to 8 and the “MIC at 600 nm LD90” value is given as 16. In the data set on P. aeruginosa PAO1 [6] (setting [15]), the “MBEC (CV at 595 nm) LD90” value is 64 and the “MBIC (CV at 595 nm) LD90” value is 16. In addition, the “cytotoxicity activities against PBMCs” value in data set [7] is recorded as “no effect”. Further, the “effect on RBCs” value in the data set with red blood cells was “no effect”.
As for `CC(C)C[C@H](NC(=O)[C@H](Cc1ccccc1)NC(=O)[C@H](C)NC(=O)[C@H](Cc1c[nH]c2ccccc12)NC(=O)[C@H](Cc1c[nH]c2ccccc12)NC(=O)[C@H](Cc1c[nH]c2ccccc12)NC(=O)[C@@H]1CCCN1C(=O)[C@H](Cc1ccccc1)NC(=O)[C@H](CCCNC(=N)N)NC(=O)[C@H](CCCNC(=N)N)NC(=O)[C@@H](N)C(C)C)C(=O)N[C@@H](CCCNC(=N)N)C(=O)N[C@@H](CCCNC(=N)N)C(N)=O` [Tritrp-P9A] (H-VRRFPWWWAFLRR-NH2), in the data set on P. aeruginosa PAO1 GFP [2] (setting [16]), the “MIC at 600 nm LD50” value is 2 µM (≈ 3.75 µg/mL) and the “MIC at 600 nm LD90” value was 2 µM (≈ 3.75 µg/mL). Further, in the data set with P. aeruginosa PAO1 GFP [3] (setting [16]), the “MBIC at 488 and 530 nm LD50” value was found to be 0.25 µmol/L; the “MBIC at 488 and 530 nm LD90” value came to 2 µmol/L. Also, in the data set with P. aeruginosa PAO1 GFP [4] (setting [16]), the “MBEC at 488 and 530 nm LD50” value was 4 µmol/L; the “MBEC at 488 and 530 nm LD90” value stood at 8 µmol/L. In the data set on S. aureus GFP [8], the “MIC at 600 nm LD50” value is 0.25 µM (≈ 0.469 µg/mL) and the “MIC at 600 nm LD90” value was found to be 1 µM (≈ 1.88 µg/mL). In the data set with S. aureus GFP [9], the “MBIC at 488 and 530 nm LD50” value turned out to be 0.25 µmol/L; the “MBIC at 488 and 530 nm LD90” value stood at 2 µmol/L. Further, in the data set on S. aureus GFP [10], the “MBEC at 488 and 530 nm LD50” value was found to be 0.5 µmol/L; the “MBEC at 488 and 530 nm LD90” value was 2 µmol/L. For the same molecule, the “MBC Agar Plate” value with S. aureus GFP [11] is 2 µM (≈ 3.75 µg/mL). In the data set with P. aeruginosa PAO1 [5] (setting [17]), the “MIC at 600 nm LD50” value is 2 µmol/L (≈ 3.75 µg/mL) and the “MIC at 600 nm LD90” value stood at 2 µmol/L (≈ 3.75 µg/mL). Also, in the data set on P. aeruginosa PAO1 [6], the “MBIC (CV at 595 nm) LD50” value amounted to 1 µmol/L and the “MBRC (CV at 595 nm) LD50” value was 16 µmol/L. In the data set on P. aeruginosa PAO1 [6] (setting [18]), the “MBIC (CV at 595 nm) LD90” value came out at 2 µmol/L and the “MBRC (CV at 595 nm) LD90” value stood at 32 µmol/L. For the same molecule, in the data set with P. aeruginosa PAO1 [12], the “MBEC from Calgary Biofilm Device (CBD) LD50” value worked out at 8 µmol/L and the “MBEC from Calgary Biofilm Device (CBD) LD90” value stood at 16 µmol/L. The “cytotoxicity activities against PBMCs” value in data set [7] was “quite strong”. Also, in the data set on red blood cells, the hemolytic activity entry is reported as “slightly more modest”.
On to `CC(C)C[C@H](NC(=O)[C@H](Cc1ccccc1)NC(=O)[C@H](C)NC(=O)[C@H](Cc1c[nH]c2ccccc12)NC(=O)[C@H](Cc1c[nH]c2ccccc12)NC(=O)[C@H](Cc1c[nH]c2ccccc12)NC(=O)[C@H](C)NC(=O)[C@H](Cc1ccccc1)NC(=O)[C@H](CCCNC(=N)N)NC(=O)[C@H](CCCNC(=N)N)NC(=O)[C@@H](N)C(C)C)C(=O)N[C@@H](CCCNC(=N)N)C(=O)N[C@@H](CCCNC(=N)N)C(N)=O` [Tritrp-P59A] (H-VRRFAWWWAFLRR-NH2), for which, in the data set with P. aeruginosa PAO1 GFP [2] (setting [16]), the “MIC at 600 nm LD50” value was determined as 2 µM (≈ 3.7 µg/mL) and the “MIC at 600 nm LD90” value was 4 µM (≈ 7.4 µg/mL). In addition, in the data set on P. aeruginosa PAO1 GFP [3] (setting [16]), the “MBIC at 488 and 530 nm LD50” value was determined as 2 µmol/L; the “MBIC at 488 and 530 nm LD90” value was determined as 4 µmol/L. Moreover, in the data set with P. aeruginosa PAO1 GFP [4] (setting [16]), the “MBEC at 488 and 530 nm LD50” value was found to be 8 µmol/L; the “MBEC at 488 and 530 nm LD90” value turned out to be 16 µmol/L. In the data set with S. aureus GFP [8], the “MIC at 600 nm LD50” value was determined as 1 µM (≈ 1.85 µg/mL) and the “MIC at 600 nm LD90” value stood at 2 µM (≈ 3.7 µg/mL). In the data set on S. aureus GFP [9], the “MBIC at 488 and 530 nm LD50” value turned out to be 2 µmol/L; the “MBIC at 488 and 530 nm LD90” value is 2 µmol/L. Further, in the data set on S. aureus GFP [10], the “MBEC at 488 and 530 nm LD50” value is 1 µmol/L; the “MBEC at 488 and 530 nm LD90” value stood at 2 µmol/L. Further, the “MBC Agar Plate” value with S. aureus GFP [11] was 4 µM (≈ 7.4 µg/mL). Moreover, in the data set on P. aeruginosa PAO1 [5] (setting [17]), the “MIC at 600 nm LD50” value is 2 µmol/L (≈ 3.7 µg/mL) and the “MIC at 600 nm LD90” value turned out to be 4 µmol/L (≈ 7.4 µg/mL). In addition, in the data set with P. aeruginosa PAO1 [6], the “MBIC (CV at 595 nm) LD50” value amounted to 4 µmol/L and the “MBRC (CV at 595 nm) LD50” value was 32 µmol/L. Moreover, in the data set on P. aeruginosa PAO1 [6] (setting [18]), the “MBIC (CV at 595 nm) LD90” value amounted to 4 µmol/L and the “MBRC (CV at 595 nm) LD90” value is 32 µmol/L. Also, in the data set with P. aeruginosa PAO1 [12], the “MBEC from Calgary Biofilm Device (CBD) LD50” value turned out to be 16 µmol/L and the “MBEC from Calgary Biofilm Device (CBD) LD90” value turned out to be 32 µmol/L. The “cytotoxicity activities against PBMCs” value in [7] is “quite strong”. Further, the hemolytic activity result in the data set on red blood cells is reported as “relatively strong”.
